The record followed here is US4769383A, “Dioxonaphthotriazoles having antiallergic activity” (Beecham Group p.l.c., priority 1981, dated 1988).

Each structure is given as a SMILES string.

Test [1] deals with rat passive peritoneal anaphylaxis. Description: Rat Passive Peritoneal Anaphylaxis (PPA). In kind it is in vivo. The conditions noted are these: Mean ± SEM, 5-7 rats per group; for Dye concentration in peritoneal fluid as % of mean of controls: Pontamine Sky Blue. The method, then: (§1) The compounds were tested for their ability to:
(a) inhibit rat passive peritoneal anaphylaxis; and
(§2) Charles River Sprague Dawley male rats of 250-300 g. and Dunkin Hartley male white guinea pigs of 250-300 g. were used.
The method has been described previously. (Ross, Janet W., Smith, H. and Spicer, Barbara A. Increased vascular permeability during passive peritoneal anaphylaxis in the rat. Int. Arch. Allergy appl. Immun., 51, 226, 1976).
Rats were sensitised by giving an intraperitoneal injection of 0.5 ml of Bordetella pertussis vaccine (4×10^10 organisms/ml Burroughs Wellcome, London) and a subcutaneous injection of 0.5 ml of an emulsion of 100 mg of ovalbumin (chicken egg albumin, crystallised and lyophilised, grade 3, Sigma, London) in 2 ml of isotonic saline and 3 ml of Freud's incomplete adjuvant (Difco Laboratories, Michigan, USA).
The rats were bled by cardiac puncture, on day 18, the blood was pooled, and the serum separated, stored at -20° C. and thawed only before use.
Rats were each given an intraperitoneal injection of 2 ml of a 1:5 dilution of the rat anti-serum in isotonic saline. Two hours later 0.3 ml of a 5% solution of Pontamine Sky Blue (Raymond A. Lamb, London) in isotonic saline was injected intravenously, followed by an intraperitoneal injection of the test compound in 1 ml of saline; (control rats received 1 ml of saline); followed 30 seconds later by an intraperitoneal injection of 5 ml of Tyrode's solution containing 50 μg/ml heparin and 0.4 mg/ml of ovalbumin. The concentrations of the compounds were quoted as those in the 6 ml of fluid injected intraperitoneally. Exactly five minutes after challenge the rats were stunned and bled and their peritoneal fluids were collected by opening their peritoneal cavities over funnels into polycarbonate tubes in ice. The supernatants were separated from the cellular residue by centrifuging at 150 g. for five minutes and were retained for assay of dye and histamine. Any samples obviously contaminated with blood were not used for estimation of dye. Groups of at least five rats were used for each dose of compound and the treatments were randomised.
Dye was assayed within two hours by measurement of optical density (OD) at 625 nm.
For histamine assay 0.5 ml samples of the supernatants were added to 1 ml volumes of 12% trichloracetic acid and stored at -20° C. The deproteinised samples were assayed using an automated spectrofluorimetric system (Technicon Autoanalyser) by a method similar to that of Evans, D. P., Lewis, J. A. and Thomson, D. S.: (An automated fluorimetric assay for the rapid determination of histamine in biological fluids. Life Sci. 12, 327, 1973).

The test system of test [2] is slow reacting substance of anaphylaxis (SRS-A), isolated guinea pig ileum. The experiment in a line: SRS-A Antagonism on Guinea Pig Ileum. The conditions noted are these: isolated guinea pig ileum strips; Tyrode's solution with atropine 5×10^-7 M and mepyramine 10^-6 M; rat SRS-A; read-out: Approximate concentration to give a 50% inhibition of a less than maximal response to SRS-A. On the procedure: as §1
(b) antagonise the spasmogenic effects of slow reacting substance of anaphylaxis, SRS-A, on isolated guinea pig ileum.
as §2
The compounds have been evaluated as direct antagonists of slow reacting substance of anaphylaxis (SRS-A) by assay using the isolated guinea pig ileum.
SRS-A rat was obtained from the peritoneal cavity of the rat after passive peritoneal anaphylaxis by a method based on that of R. P. Orange, D. J. Stechschulte and K. F. Austen, J. Immunology, 105, 1087 (1970) as described by J. W. Ross, H. Smith and B. A. Spicer 1976, Increased vascular permeability during passive peritoneal anaphylaxis in the rat. Int. Arch. Allergy appl. 51, 226. The sensitising serum containing antibody was produced in rats as described by J. W. Ross et. al., ibid.
2 ml of a 1 in 5 dilution of the sensitising serum was injected by the peritoneal route into recipient rats and after 2 hours 5 ml of Tyrode's solution containing 0.4 mg/ml ovalbumin (Sigma Grade III) and 50 μg/ml heparin was injected by the same route. Five minutes after challenge the rats were stunned and bled and the peritoneal fluids collected into polycarbonate tubes in ice. After centrifugation at 150 g. for five minutes the supernatants were combined, heated in a boiling water bath for five minutes, cooled and stored at -20° C. The combined peritoneal fluids contained SRS-A and were used in the antagonism studies.
The SRS-A arrays were carried out on isolated strips of guinea pig ileum in Tyrode's solution containing atropine 5×10^-7 M and mepyramine 10^-6 M as described by W. E. Brocklehurst, J. Physiology, 151, 416 (1960).
The activity of the antagonists was determined by their ability to reduce submaximal responses induced by SRS-A. The antagonists were added to the 4 ml bath in 0.1 ml volumes in aqueous solution half a minute before the addition of SRS-A and were present during induced contraction.

In the case of `CCCc1c(OCCCOc2ccc3c(c2)C(=O)c2nn[nH]c2C3=O)ccc(C(C)=O)c1O` [Example 1, 6-[3-(4-Acetyl-3-hydroxy-2-n-propylphenoxy)propoxy]4,9-dihydro-4,9-dioxo-1H-naphtho[2,3-d]-v-triazole], the “Histamine concentration in peritoneal fluid as % of mean of controls” value in test [1] (2 × 10^-5 M injected i.p.) was 10 ± 1 % of mean of controls; in test [1] (2 × 10^-6 M injected i.p.), 27 ± 8 % of mean of controls; in test [1] (2 × 10^-7 M injected i.p.), 57 ± 11 % of mean of controls. The entries for the “Dye concentration in peritoneal fluid as % of mean of controls” value in test [1] (2 × 10^-5 M injected i.p.), in test [1] (2 × 10^-6 M injected i.p.) and in test [1] (2 × 10^-7 M injected i.p.) were 32 ± 5 % of mean of controls, 58 ± 8 % of mean of controls and 63 ± 5 % of mean of controls, respectively. Moreover, the IC50 in test [2] was around 400 nM.

`CCCc1c(OCCCOc2cccc3c2C(=O)c2nn[nH]c2C3=O)ccc(C(C)=O)c1O` [Example 3, 5-[3-(4-Acetyl-3-hydroxy-2-n-propylphenoxy)-propoxy]4,9-dihydro-4,9-dioxo-1H-naphtho[2,3-d]-v-triazole]: in test [1] (2 × 10^-5 M injected i.p.), the “Histamine concentration in peritoneal fluid as % of mean of controls” value was 25 ± 3 % of mean of controls and the “Dye concentration in peritoneal fluid as % of mean of controls” value is reported as 57 ± 4 % of mean of controls. In test [1] (2 × 10^-6 M injected i.p.), the “Histamine concentration in peritoneal fluid as % of mean of controls” value is recorded as 62 ± 11 % of mean of controls and the “Dye concentration in peritoneal fluid as % of mean of controls” value is on record as 94 ± 8 % of mean of controls. Further, the IC50 in test [2] lay within 1000 to 10000 nM.

Consider `CCCc1c(OCC(O)COc2ccc3c(c2)C(=O)c2nn[nH]c2C3=O)ccc(C(C)=O)c1O` (centres unmarked) [Example 4, 6-[3-(4-Acetyl-3-hydroxy-2-n-propylphenoxy)2-hydroxypropoxy]-4,9-dihydro-4,9-dioxo-1H-naphtho[2,3-d]-v-triazole], for which the “Histamine concentration in peritoneal fluid as % of mean of controls” value is on record as 38 ± 4 % of mean of controls in test [1] (2 × 10^-7 M injected i.p.) and 64 ± 11 % of mean of controls in test [1] (2 × 10^-8 M injected i.p.). The “Dye concentration in peritoneal fluid as % of mean of controls” value in test [1] (2 × 10^-7 M injected i.p.) is recorded as 58 ± 4 % of mean of controls; in test [1] (2 × 10^-8 M injected i.p.) it was 72 ± 11 % of mean of controls. Moreover, the IC50 in test [2] lay within 100 to 250 nM.
